Legend:
Assay type in all cases: cell-based, human
[1] = system: CSC spheroids of A549, H23, and H292 cells; assay: 3D CSC spheroid formation with immunofluorescence; details: 50 nM; for levels of CD133, CD44, and OCT4 in CSC spheroids: 24 h, immunofluorescence
Procedure: A three-dimensional (3D) spheroid was employed to generate the spheroids containing CSC subpopulations from lung cancer cells. For CSC-rich population establishment, the spheroid culture assay used in this study was slightly modified from a previously described method. Lung cancer cells, specifically NSCLC cells (A549, H23, and H292), were seeded onto a 24-well ultra-low attachment plate, with approximately density of 2.5 × 10^3 cells per well in a medium with a 1% FBS and Nutristem mix. The primary spheroids were allowed to form for 7 days. Every 2 days, fresh medium with 1% FBS and Nutristem mix was replenished. On day 7 of primary spheroid culture, primary spheroids were resuspended into single cells using trypsin, and again 2.5 × 10^3 cells/well were seeded into a 24-well ultra-low attachment plate. Secondary spheroids were allowed to form for 10 days. After 10 days, the secondary spheroids were treated with 50 nM concentration DH_32 for 24 h treatment. The spheroids that had undergone treatment were retrieved through centrifugation at 1000× g for 30 s and then rinsed with PBS. The spheroids were fixed with 4% paraformaldehyde in a 50 μL PBS solution for 20 min at room temperature, and then they were made permeable by treating them with 0.1% Triton X in PBS for 5 min at room temperature. The spheroids were exposed to a mixture of 5% FBS and 2% BSA in PBS for 1 h at room temperature to prevent non-specific protein interactions. Subsequently, the spheroids were incubated with primary antibodies (CD133, CD44, and OCT4) at a 1:250 dilution in a 30 μL PBS solution containing 2.5% FBS and 1% BSA, and this incubation took place overnight at 4 °C. On the subsequent day, the spheroids were rinsed with PBS and then exposed to secondary antibodies (Alexa Fluor 594-conjugated goat anti-rabbit IgG (H+L) and Alexa Fluor 488-conjugated goat anti-mouse IgG (H+L)) at a 1:500 dilution in a 30 μL PBS solution containing 2.5% FBS and 1% BSA at room temperature for 1 h 30 min. These spheroids were subjected to staining with Hoechst 33342 (Sigma, St. Louis, MO, USA) at a concentration of 10 μg/mL for a duration of 15 min at room temperature. Subsequently, the fluorescence signals were observed using a fluorescence microscope (Olympus IX 51 with DP70; Olympus America Inc., Center Valley, PA, USA). The intensity of fluorescence was quantified using Image J software. NSCLC spheroids treated with RT at 50 nM and cisplatin at 50 nM served as the positive control.

[2] = system: H23 cells; assay: Proliferation assay (MTT); details: H23, 24 h, 25 nM
Procedure: (§1) An MTT assay was employed to evaluate the antiproliferative impact of the right-half RT analog, DH_32, over a period of three consecutive days. The human NSCLC cells lines A549, H23, and H292 were seeded at a cell density of 2 × 10^3 cells per well in a 96-well plate. The cells were exposed to low concentrations (0, 25, 50, and 100 nM) of DH_32 at various time points (0 h, 24 h, 48 h, and 72 h) and then incubated under 5% CO2 at 37 °C. Subsequently, the cell viability was assessed using an MTT assay at 0 h, 24 h, 48 h, and 72 h. The percentage of cell proliferation was determined by dividing the optical density (OD) of the cells at each time point by the OD of the non-treated control cells. In this experiment, RT served as the positive control.

[3] = system: A549 cells; assay: Proliferation assay (MTT)
Procedure: as §1

[4] = system: H292 cells; assay: Proliferation assay (MTT); details: H292, 24 h, 25 nM
Procedure: as §1

[5] = system: H23 cells; assay: MTT cell viability assay
Procedure: (§2) The cell viability was assessed using an MTT assay, determining the half-maximal inhibitory concentration (IC50) to screen right-half RT analogs (DH_18, DH_21, DH_32, DH_35, DH_38, and DH_39). Human NSCLC cells (A549, H23, and H292) were seeded in a 96-well cell culture plate at a density of 1 × 10^4 cells per well and incubated for 24 h at 37 °C. Subsequently, the culture medium was aspirated, and a complete medium with varying concentrations (0–100 μM) of right-half RT analogs was added for 24 h. Following the removal of the compound-containing medium, an MTT reagent at a concentration of 4 mg/mL was applied and incubated for 3 h at 37 °C. The MTT reagent was replaced with 100 μL of DMSO to dissolve the formazan crystals. The measurement of the formazan product was conducted at 570 nm utilizing a microplate reader. RT served as the positive control in this experiment.

[6] = system: A549 cells; assay: MTT cell viability assay; details: A549, 24 h treatment
Procedure: as §2

[7] = system: H292 cells; assay: MTT cell viability assay
Procedure: as §2

[8] = system: H23 cells; assay: Colony formation assay; details: H23, 25 nM, 24 h treatment then 7 days growth
Procedure: (§3) A clonogenic or colony formation assay was utilized to explore the capability of cancer cells to proliferate from single cells and form tumor colonies in response to DH_32 treatment. A single-cell suspension of NSCLC cells (A549, H23, and H292) was seeded at a density of 250 cells per well in a 6-well plate and permitted to adhere for 12 h. The cells were treated to different concentrations of DH_32 (0, 25, 50, and 100 nM) for a duration of 24 h. Subsequently, the medium containing the drug was aspirated, and fresh complete medium was introduced. The colonies were cultured for a period of 7 days, with the medium being renewed every 2 days. The colonies were washed with PBS, followed by fixation using a solution of methanol and acetic acid (3:1 v/v) for 5 min. Subsequently, they were stained with crystal violet (0.05% w/v in 4% paraformaldehyde) for 30 min. The excess crystal violet stain was washed away with distilled water until a clear background was obtained, and the samples were left to air-dry at room temperature. The colonies were photographed, and the captured images were analyzed using ImageJ software to determine the count of stained colonies. In this experiment, RT served as the positive control.

[9] = system: A549 cells; assay: Colony formation assay; details: A549, 25 nM, 24 h treatment then 7 days growth
Procedure: as §3

[10] = system: H292 cells; assay: Colony formation assay; details: H292, 25 nM, 24 h treatment then 7 days growth
Procedure: as §3

[11] = A549, 48 h, DH_32 25, 50, and 100 nM, RT 25 and 50 nM

Compound	size of spheroid formations [1]	levels of CD133, CD44, and OCT4 in CSC spheroids [1]	proliferation rate [2]	proliferation rate ([3]; A549, 24 h, 50 and 100 nM)	proliferation rate [3, 11]	proliferation rate [4]	IC50 ([5]; Homo sapiens, NCI-H23, H23, 24 h treatment)	IC50 ([6]; Homo sapiens)	IC50 ([7]; Homo sapiens, NCI-H292, H292, 24 h treatment)	inhibition at 0.025 µM ([8]; Homo sapiens, NCI-H23, read-out: colony formation inhibition rate)	inhibition at 0.025 µM ([9]; Homo sapiens, read-out: colony formation inhibition rate)	inhibition at 0.025 µM ([10]; Homo sapiens, NCI-H292, read-out: colony formation inhibition rate)	IC50 ([5]; H23, 24 h treatment)	IC50 [6]	IC50 ([7]; H292, 24 h treatment)	colony formation inhibition rate [8]	colony formation inhibition rate [9]	colony formation inhibition rate [10]
COC1=C(C)C(=O)C2=C(C1=O)[C@@H]1CN(Cc3ccc4ccccc4c3)[C@@H](C#N)[C@H](C2)N1C [DH_32, (1R,4R,5S)-9-methoxy-8,11-dimethyl-3-(naphthalen-2-ylmethyl)-7,10-dioxo-1,2,3,4,5,6,7,10-octahydro-1,5-epiminobenzo[d]azocine-4-carbonitrile]	decreased	dramatic decrease	substantial reduction in the proliferation rate	decreased proliferation rate	significant reduction in cell proliferation	substantial reduction in the proliferation rate	2.07 ± 0.11 µM	4.06 ± 0.24 µM	1.46 ± 0.06 µM	78.49 ± 0.08%	90.83 ± 0.1%	79.74 ± 0.14%						
CC=C(C)C(=O)OCC1c2c(c(O)c(C)c3c2OCO3)CC2C3C4=C(CC(C(C#N)N12)N3C)C(=O)C(C)=C(OC)C4=O (centres unmarked) [RT, Renieramycin T]		lesser effects	did not exhibit any change in their proliferation rate	did not affect the proliferation	did not exhibit any effect	did not exhibit any change in their proliferation rate							2.93 ± 0.07 µM	5.76 ± 0.23 µM	1.52 ± 0.05 µM	58.75 ± 0.01%	72.58 ± 0.07%	32.22 ± 0.05%

— PMC10744608, “Simplified Synthesis of Renieramycin T Derivatives to Target Cancer Stem Cells via β-Catenin Proteasomal Degradation in Human Lung Cancer” (Marine Drugs, 2023)
